Laboratory results: patent publication US11046730B2, “Antimicrobial compositions” (The Regents of the University of California, priority 2016, dated 2021)
Bridge positions count the residues as written; N and C are the ends. Square brackets hold non-standard residues; d marks the D form. Peptide text beside a SMILES is read from it.

Legend:
[1] = tested on: Gram-positive bacteria; test: minimum inhibitory concentration (MIC) assays against four types of Gram-positive bacteria; type: cell-based; details: for MIC: four Gram-positive bacteria studied, homologues as TFA salts; for antibiotic activity in MIC assays, result in words: Gram-positive bacteria, mostly compared with Arg10-teixobactin; for MIC values lower than those of Arg10-teixobactin (fold): relative to Arg10-teixobactin; for MIC values: four species of Gram-positive bacteria
Description: The antibiotic activity of Arg10-teixobactin and homologues was investigated in minimum inhibitory concentration (MIC) assays against four types of Gram-positive bacteria, as well as control substances, in order to elucidate the importance of various functionalities within teixobactin analogues and guide the rational design of new antimicrobial compounds (as summarized in Tables 1, 2 and 3 (FIGS. 5A, 5B, and 5C respectively). These MIC studies used vancomycin as a positive control and the Gram-negative bacterium E. coli as a negative control.

[2] = gel formation / solubility; type: physicochemical; details: propensity to form a gel
Description: In addition, according to many embodiments of the invention, teixobactin homologues can be functionalized at position 9 to improve solubility for easier or more efficient drug administration. For example, Arg10-teixobactin has the propensity to form a gel at concentrations as low as 5 mg/mL. This poor solubility will hamper the ability of Arg10-teixobactin or any other teixobactin derivative to be used as a drug because it will impede intravenous administration. […] More specifically, in some embodiments of the invention the water solubility of teixobactin analogues can be improved by functionalization of position 9 with polyethylene glycol (PEG) derivatives. In one embodiment, Ala9 is replaced with a PEG-containing amino acid, such as Gln(PEG6OMe), the derivative of Glu, in which the side chain has been coupled to H2NCH2CH2(OCH2CH2)5OMe.

[3] = tested on: Gram-positive bacteria; details: literature structure-activity studies; cited from earlier work

Row | Compound | antibiotic activity in MIC assays, result in words [1] | also measured
1 | CC[C@H](C)[C@H](NC(=O)[C@@H](Cc1ccccc1)NC)C(=O)N[C@@H](CO)C(=O)N[C@H](CCC(N)=O)C(=O)N[C@@H](C(=O)N[C@H](C(=O)N[C@@H](CO)C(=O)N[C@H]1C(=O)N[C@@H](C)C(=O)N[C@@H](CCCNC(=N)N)C(=O)N[C@@H]([C@@H](C)CC)C(=O)O[C@H]1C)[C@@H](C)CC)[C@@H](C)CC [Arg10-teixobactin] |  | MIC [1]: 1 to 4 µg/mL; concentration at which a gel forms [2]: ≥ 5000 µg/mL; activity relative to teixobactin in MIC assays [3]: about an order of magnitude less active
2 | CC[C@H](C)[C@H](N)C(=O)N[C@@H](CO)C(=O)N[C@H]1C(=O)N[C@@H](C)C(=O)N[C@@H](CCCNC(=N)N)C(=O)N[C@@H]([C@@H](C)CC)C(=O)O[C@H]1C [short-Arg10-teixobactin] (H-IS[dT]ARI; ester 3-C) |  | MIC [1]: > 32 µg/mL
3 | Ac-Δ1-5-Arg10-teixobactin | inactive | 
4 | Ala3,Lys10-teixobactin | diminished the activity of position 10 lysine analogue | 
5 | Ala7,Arg10-teixobactin | greatly diminished activity | 
6 | Arg10Lys11-teixobactin | loss of activity | 
7 | Chg6,Arg10,Chg11-teixobactin | slightly greater activity than Arg10-teixobactin | MIC values lower than those of Arg10-teixobactin (fold) [1]: lower by a factor of two
8 | D-Dap8,Arg10-teixobactin | comparable activity to Arg10-teixobactin | 
9 | D-allo-Ile11,Arg10-teixobactin | half as active | 
10 | Glu(PEG-Biotinyl)9,Lys10-teixobactin |  | MIC values [1]: 2-16 micrograms/mL
11 | Lys6Arg10-teixobactin | loss of activity | 
12 | Lys9Arg10-teixobactin |  | antibiotic activity in MIC assays, result in words ([1]; listed as Lys9,Arg10-teixobactin): proven activity
13 | Lys10-teixobactin | comparable to those of vancomycin | MIC values lower than those of Arg10-teixobactin (fold) [1]: 2-4 times
14 | Lys(Mca)9,Lys10-teixobactin |  | MIC values [1]: 1-8 micrograms/mL
15 | Orn10-teixobactin | excellent to satisfactory antimicrobial activity | 
16 | dodecanoyl-Δ1-5-Arg10-teixobactin [lipobactin 1] | activity close to that of Arg10-teixobactin | 
17 | ent-Arg10-teixobactin | comparable activity to Arg10-teixobactin | 
